According to patent US11992489B2, “Substituted tetrahydroquinoline compounds as indoleamine 2,3-dioxygenase inhibitors” (Merck Sharp & Dohme LLC, priority 2018, dated 2024):

Columns and labels:
IDO1 [1] = biological target: T1, IDO1 (Homo sapiens, UniProt P14902); assay: IDO1 human whole blood assay; assay type: cell-based; set-up: Human whole blood was drawn in sodium heparin coated tubes from healthy internal donors; from tissue; host or cells: human whole blood from healthy donors, stimulated with LPS/IFNγ; conditions: stimulant 100 ng/mL final, 18 h, kynurenine by LC/MS/MS, read-out: Human Whole Blood Potency, IC50
T1 sequence (P14902 whole entry): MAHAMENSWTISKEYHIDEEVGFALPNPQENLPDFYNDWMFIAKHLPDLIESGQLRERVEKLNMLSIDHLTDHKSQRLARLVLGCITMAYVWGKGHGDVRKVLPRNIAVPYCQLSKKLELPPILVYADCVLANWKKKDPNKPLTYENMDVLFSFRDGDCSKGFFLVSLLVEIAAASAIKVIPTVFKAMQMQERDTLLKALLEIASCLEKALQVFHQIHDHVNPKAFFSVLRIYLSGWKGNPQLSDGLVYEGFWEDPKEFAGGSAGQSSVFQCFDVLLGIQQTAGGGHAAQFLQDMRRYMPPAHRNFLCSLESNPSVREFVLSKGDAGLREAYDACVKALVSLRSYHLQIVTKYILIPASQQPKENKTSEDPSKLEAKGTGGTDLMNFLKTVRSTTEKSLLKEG
Description: IDO1 Human Whole Blood Assay
Compounds to be tested were serially diluted in ten 3-fold steps in DMSO starting from 10 mM. 3 μL of compound dilutions or DMSO alone were then dispensed from the dilution plate into a polypropylene 96-well assay plate containing 97 μL of RPMI medium using an Echo 555 acoustic liquid handler (Labcyte). Lipopolysaccharide (LPS) induced IFNγ was prepared in RPMI medium to a 10× of final conc. (1000 ng/mL), final concentration is 100 ng/mL.
Human whole blood was drawn in sodium heparin coated tubes from healthy internal donors. 240 μL of blood was transferred to each of the wells of a v-bottom 96 well plate. 30 μL of compound was transferred from intermediate dilution plate, and incubated for 15 min. 30 μL from stimulants was then transferred to blood and mixed thoroughly. Plate was covered with breathable membrane and incubated at 37° C. for overnight (18 h).
On day 2, isotope labeled standard solutions of kunurenine and tryptophan was made in water at 10× concentration and 30 μL was added to the blood at 3 μM final concentration. The assay plates were centrifuged at 300×G for 10 min with no brake to separate plasma from red blood cells. 60 μL of plasma samples was removed without disturbing red blood cells. Plasma was diluted with RPMI in 1:1 ratio and proteins were precipitated out with two volumes of Acetonitrile. The plates were centrifuged at 4000×G for 60 min. 20 μL of supernatant was carefully transferred to a 384 well plate containing 40 μL of 0.1% formic acid in water and analyzed by LC/MS/MS.
LC/MS/MS analyses were performed using Thermo Fisher's LX4-TSQ Quantum Ultra system. This system consists of four Agilent binary high-performance liquid chromatography (HPLC) pumps and a TSQ Quantum Ultra triple quadrupole MS/MS instrument. For each sample, 5 μL were injected onto an Atlantis T3 column (2.1 mm×150 mm, 3 μm particle size) from Waters. The mobile phase gradient pumped at 0.8 mL/min was used to elute the analytes from the column at 25° C. […] Compounds were titrated and IC50's were calculated by 4 parameter sigmoidal curve fitting formula.

IDO1 [2] = biological target: T1, IDO1; assay: IDO1 cellular assay in HeLa cells stimulated with IFNγ; assay type: cell-based; conditions: IFNγ 100 ng/mL, 300 uM L-tryptophan, about 48 hours, fluorescence readout, read-out: HeLa Cell Potency, IC50
Description: Biological Assays IDO1 Cellular Assay in HeLa Cells Stimulated with IFNγ
HeLa cells were cultured in complete HeLa culture medium (90% EMEM, 10% heat-inactivated fetal bovine serum) and expanded to about 1×10^9 cells. The cells were then collected and frozen down at 1×10^7 cells/vial in 1 mL frozen medium (90% complete HeLa culture medium, 10% DMSO).
Compounds to be tested were serially diluted in ten 3-fold steps in DMSO starting from 10 mM DMSO stocks in Echo low volume plate(s). Compound dilutions or DMSO alone were then dispensed from the dilution plate(s) into Greiner black 384-well assay plate(s) (catalog #781086, 50 nL/well) using an Echo 550 acoustic liquid handler (Labcyte).
Frozen HeLa cells were thawed and transferred into HeLa assay medium (99% complete HeLa culture medium, 1% Pen/Strep) with 20 mL medium/vial of cells. The cells were spun down at 250 g in a table top centrifuge for 5 min and suspended in same volume of HeLa assay medium. The cells were then counted and adjusted to a density of 2×10^5 cells/mL in HeLa assay medium. Sterile L-tryptophan were added to the cells with final concentration of 300 uM L-tryptophan. A small aliquot (2 mL/plate) of HeLa cells were set aside and were not treated with IFNγ, to serve as the Max-E control.
HeLa cells with and without IFNγ were dispensed to the respective wells of 384-well assay plates containing the compounds. The plates were incubated for about 48 hours at a 37° C., 5% CO2 incubator. Afterwards, 12 μL of 0.5 M methyl isonipecotate in dimethyl sulfoxide were added into each well and the plates were sealed and incubated at 37° C. without CO2 overnight. The plates were centrifuged for 1 min at 200×g. The resulting fluorescence was measured in a Spectramax plate reader (Molecular Devices) with a 400 nm excitation filter and a 510 nm emission filter.
The fluorescence intensity of each well was corrected for the background observed in wells with non-IFNγ-treated cells and was expressed as a fraction of the intensity observed in wells of IFNγ-treated cells and DMSO only. Potencies were calculated by linear least squares fit to the four parameter logistic IC50 equation.

Structure (SMILES)	IC50 (IDO1 [1])	IC50 (IDO1 [2])
O=C(NC1(c2ccc3c(n2)CCC[C@@H]3Oc2cccc(Cl)c2)CC1)c1ccc(F)cc1 (single isomer, unassigned) [Example 3]	> 1000 nM	6.99 nM
O=C(NC1(c2ccc3c(n2)CCC[C@H]3Oc2cccc(Cl)c2)CC1)c1ccc(F)cc1 (single isomer, unassigned) [Example 2]	864 nM	2.98 nM
O=C(NC1(c2ccc3c(n2)CCCC3Oc2cccc(Cl)c2)CC1)c1ccc(F)cc1 (stereo not drawn) [Example 1, N-(1-(5-(3-chlorophenoxy)-5,6,7,8-tetrahydroquinolin-2-yl)cyclopropyl)-4-fluorobenzamide]	601 nM	2.68 nM
